Values of other authors, collected in patent US8435575B2, “Use of gingerols for cancer patients suffering from nausea and emesis induced by chemotherapy” (priority 2010, dated 2013).
Entries after “also recorded” stand apart in the source; their conditions may differ.

Tests used:
[1] = test system: post surgical nausea and vomiting; settings: oral ginger, 1.25 mg intravenous droperidol; 24 hour period following surgery
[2] = test system: post operative vomiting and nausea
[3] = test system: post-operative nausea and vomiting
[4] = test system: vection-induced motion sickness; settings: college students with self-reported high susceptibility to motion sickness

O=C(CCCN1CC=C(n2c(=O)[nH]c3ccccc32)CC1)c1ccc(F)cc1 [droperidol]
statistically significant decrease in post-operative nausea or vomiting versus placebo [1]: no differences; also recorded: Neither drug showed a

CCN(CC)CCNC(=O)c1cc(Cl)c(N)cc1OC [metochlopramide]
post-operative nausea versus placebo ([2]; 1 gram ginger powder or metochlopramide one hour prior to anaesthesia, laparoscopic gynaecological surgery): significantly more effective than placebo | patients nauseated ([2]; after laparoscopic gynaecological surgery, 41% with placebo): placebo, 27% | frequency of emesis between the three arms ([2]; ginger vs metochlopramide vs placebo): no significant differences | post-operative nausea and vomiting control versus placebo ([3]; 1.0 g ginger or 10 mg metochlopramide orally prior to gynecological surgery, P < .05): significantly more effective than placebo | post-operative vomiting versus placebo ([3]; both active drugs vs placebo): less vomiting

CN(C)CCOC(c1ccccc1)c1ccccc1 [diphenhydramine]
preventing gastrointestinal symptoms caused by vection-induced motion sickness, versus dried chickweed herb placebo [4]: more effective than dried chickweed herb placebo
